Measurements: EP0103381B1, “Substituted anthra(1,9-cd)pyrazol-6(2H)-ones” (WARNER-LAMBERT COMPANY, priority 1982, dated 1984)

Assays:
[1] = system: lymphocytic leukemia P388; experiment: in vivo lymphocytic leukemia P388 test; parameters: species or system mice; details: Mus musculus, P388, ip, 720 h, two single doses four days apart, read-out: T/C × 100 (Percent)
Procedure, shortened: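 Efficacy was judged from the treated/control survival-time ratio over 30 days (T/C×100 >125% as criterion). Mice (CD2F, 6–7/group) received i.p. P388 ascites cells, then compound i.p. at varied doses twice, four days apart.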

L1210 Leukemia (CDF1) = experiment: broad spectrum antitumor activity in mice, L1210 leukemia; type: in vivo; details: IP/IP
Text: (§1) Broad Spectrum Antitumor Activity^* of 2-[2-(Diethylamino)ethyl]-7,10-dihydroxy-5-[[2-[(2-hydroxyethyl)amino]ethyl]amino]anthra[1-9-cd]pyrazol-6(2H)-one Dihydrochloride in Mice

M5076 Ovary = experiment: broad spectrum antitumor activity in mice, M5076 ovary; type: in vivo; details: IP/IP
Text: as §1

Structure (SMILES): CCN(CC)CCn1nc2c3c(c(NCCNCCO)ccc31)C(=O)c1c(O)ccc(O)c1-2 [Example 28, 2-[2-(Diethylamino)ethyl]-7,10-dihydroxy-5-[[2-[(2-hydroxyethyl)amino]ethyl]amino]anthra[1,9-cd]pyrazol-6(2H)-one]
- response vs control in vivo at 0.78 mg/kg ([1]; P388, Dose 0.78 mg/kg intraperitoneally): 140%
- response vs control in vivo at 1.56 mg/kg ([1]; P388, Dose 1.56 mg/kg intraperitoneally): 148%
- response vs control in vivo at 3.12 mg/kg ([1]; P388, Dose 3.12 mg/kg intraperitoneally): 164%
- response vs control in vivo at 6.25 mg/kg ([1]; P388, Dose 6.25 mg/kg intraperitoneally): 180%
- T/C × 100 (Percent) (L1210 Leukemia (CDF1); Q01D × 09, Dose 1 mg/kg): 137%
- T/C × 100 (Percent) (L1210 Leukemia (CDF1); Q01D × 09, Dose 2 mg/kg): 144%
- T/C × 100 (Percent) (L1210 Leukemia (CDF1); Q01D × 09, Dose 4 mg/kg): 178%
- T/C × 100 (Percent) (L1210 Leukemia (CDF1); Q01D × 09, Dose 8 mg/kg): 240%
- T/C × 100 (Percent) (L1210 Leukemia (CDF1); Q01D × 09, Dose 16 mg/kg): 133%
- T/C × 100 (Percent) (M5076 Ovary; Q04D × 04, Dose 1.25 mg/kg): 143%
- T/C × 100 (Percent) (M5076 Ovary; Q04D × 04, Dose 2.5 mg/kg): 233%
- T/C × 100 (Percent) (M5076 Ovary; Q04D × 04, Dose 5 mg/kg): 186%
- T/C × 100 (Percent) (M5076 Ovary; Q04D × 04, Dose 10 mg/kg): 260%
